According to publication PMC9999251, “Pyrazole-based lamellarin O analogues: synthesis, biological evaluation and structure–activity relationships” (RSC Advances, 2023):

Key:
HCT116 cells [1] = test: Cell viability (MTT assay), HCT116; format: cell-based; details: Homo sapiens, HCT-116, 96 h treatment, read-out: GI50 ± SD HCT116
Method: (§1) SW480 (human colon adenocarcinoma, adherent, epithelial, ATCC number: CCL-228), HT29 (human colon adenocarcinoma, adherent, epithelial, ATCC number: HTB-38), and HCT116 (human colon adenocarcinoma, adherent, epithelial-like, ATCC number: CCL-247) cells were maintained in RPMI-1640 medium (Sigma-Aldrich). Medium was supplemented with heat-inactivated FBS (Biowest), penicillin–streptomycin (Sigma; with 10 000 units penicillin and 10 mg streptomycin per mL in 0.9% NaCl) and L-glutamine (Sigma; 200 mM solution). Cell cultures were cultivated at 37 °C, maintaining a humidified atmosphere consisting of 5% CO2. Gibco™ trypsin–EDTA (0.05%) was used for cell passage.
(§2) To evaluate cell viability, SW480, HT29, and HCT116 cells were harvested from culture flasks by trypsinization and seeded into 96-well plates in 4000 cells per well, 3000 cells per well and 4000 cells per well densities, respectively. After 24 h preincubation period, cells were treated in triplicates with nine different doses of each compound (6a–o and 7a–c) for 96 h. After treatment compound solutions were replaced with MTT solution (MTT reagent in PBS, […]) diluted in a 6 : 1 ratio in non-supplemented RPMI-1640 medium and were additionally incubated for 2 h. After incubation, the medium was removed, and formazan product was dissolved in DMSO. Optical densities were measured at 550 nm with TECAN Infinite® M200 PRO microplate reader using a reference wavelength of 690 nm to correct unspecific absorption. The quantity of viable cells was normalized to untreated controls. The GI50 values were calculated from dose–response curves.

HT29 cells [2] = test: Cell viability (MTT assay), HT29; format: cell-based; details: Homo sapiens, HT-29, 96 h treatment, read-out: GI50 ± SD HT29
Method: as §1, §2

SW480 cells [3] = test: Cell viability (MTT assay), SW480; format: cell-based; details: Homo sapiens, SW480, 96 h, 96 h treatment, read-out: GI50 ± SD SW480
Method: as §1, §2

[4] = Determination of HPLC–log P; format: physicochemical; details: reversed-phase HPLC on apHera C18 column; methanol / 0.01 M phosphate buffer pH 7.4; mean ± SD
Method: HPLC–log P values were determined using Shimadzu HPLC system equipped with apHera C18 column (10 × 6 mm, 5 μm, Supelco, Bellefonte, PA, USA). Each sample was dissolved in the internal standard mixture, consisting of triphenylene (99.9%, Carl Roth) and toluene (≥98%, Sigma-Aldrich). Analysis was performed at 1.5 mL min^−1 flow rate in the linear gradient where mobile phase consisted of methanol and 0.01 M phosphate buffer (pH 7.4). The HPLC–log P values were calculated from the measured retention times using previously published equation.[57]

human serum albumin = biological target: T1, human serum albumin (Homo sapiens, UniProt P02768); test: Plasma protein binding (PPB), HPLC on albumin-bound stationary phase; format: in vitro ADME; details: pH 7.4, binding to human serum albumin, HPLC method
T1 construct: purchased Chiral Technologies, DAICEL Group, Europe SAS, France CHIRALPAK®HAS (50 × 3 mm, 5 μm)
T1 sequence (P02768 25-609): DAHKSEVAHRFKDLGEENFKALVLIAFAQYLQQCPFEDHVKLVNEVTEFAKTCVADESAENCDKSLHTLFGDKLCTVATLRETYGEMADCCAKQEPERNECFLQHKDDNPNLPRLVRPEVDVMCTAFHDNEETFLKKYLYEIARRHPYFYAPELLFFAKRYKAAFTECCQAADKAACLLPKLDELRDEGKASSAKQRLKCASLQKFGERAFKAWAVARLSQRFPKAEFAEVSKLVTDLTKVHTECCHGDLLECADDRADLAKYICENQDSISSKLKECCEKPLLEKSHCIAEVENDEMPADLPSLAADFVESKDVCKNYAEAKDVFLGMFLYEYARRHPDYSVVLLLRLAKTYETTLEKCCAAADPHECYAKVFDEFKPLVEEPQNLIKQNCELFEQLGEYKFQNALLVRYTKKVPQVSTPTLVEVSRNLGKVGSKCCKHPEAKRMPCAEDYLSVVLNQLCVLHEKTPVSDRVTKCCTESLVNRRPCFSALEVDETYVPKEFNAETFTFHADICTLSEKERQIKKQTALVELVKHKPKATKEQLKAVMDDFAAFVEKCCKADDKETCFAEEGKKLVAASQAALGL
Method: Retention times of the analytes were measured with Shimadzu HPLC system on the CHIRALPAK®HAS stationary phase (50 × 3 mm, 5 μm, Chiral Technologies, DAICEL Group, Europe SAS, France). The mobile phase A consisted of 50 mM aqueous ammonium acetate buffer (pH 7.4) and phase B of 2-propanol according to Valko et al.[65] Analysis was performed at prolonged 1 mL min^−1 flow rate in the linear gradient. Retention capacity factors (k′) were calculated by using DMSO or a substance with 0% HAS binding for systems' dead time (Rt0). The system was calibrated by injecting the reference compounds: acetylsalicylic acid (CAS 69-72-7), betamethasone (CAS 378-44-9), budesonide (CAS 5133-22-3), carbamazepine (CAS 298-46-4), cimetidine (CAS 51481-61-9), ciprofloxacin (CAS 85721-33-1), indomethacin (CAS 53-86-1), isoniazid (CAS 54-85-3), metronidazole (CAS 443-48-1), nicardipine (CAS 55985-32-5), nizatidine (CAS 76963-41-2) and warfarin (CAS 81-81-2) obtained from Sigma-Aldrich, diclofenac (CAS 15307-86-5) from EMD Chemicals Inc., flumazenil (CAS 78755-81-4) from ABX and ketoprofen (CAS 22071-15-4) from LKT Labs. The logarithmic capacity factors of the references' Rt (log(k′)) on the HSA column were plotted against the %PPB values from literature. The slope and the intercept were used to convert the log(k′) of the compounds (6a, c, f, h, m–o) to %PPB using the regression equation.[66]

HCT116 cells [5] = test: Cell cycle distribution by flow cytometry (FACS); format: cell-based, human; details: HCT116, 72 h, lowest concentration of 5 μM; for G2/M phase: negative control 14.2 ± 1.1%; for G1 phase: negative control 49.5 ± 1.8%
Method: HCT116 cells (40 000 cells per well) were treated with the test compounds (6c, 6m) for 72 h in the concentration range of 5, 10 and 20 μM. After treatment cells were washed with DPBS (Sigma; modified, without calcium chloride and magnesium chloride) and trypsinized using a trypsin–EDTA solution (Gibco™, 0.05%). After additional washing with DPBS, cells were stained at +4 °C overnight using PI/HFS solution (50 μg mL^−1).[67] Samples were then analysed using Guava® easyCyte™ 8HT (Merck Millipore) flow cytometer with Guava Clean 3.1 software. The amount of debris was in the range of 9.2 ± 2.0%.

HCT116 cells [6] = test: Viability staining via Calcein AM/Hoechst/PI, HCT116; format: cell-based, human; details: 20 µM, 24 h (Fig. S134 legend), method block: 4 μM, 96 h
Method: (§3) SW480, HT29 and HCT116 cells were seeded in 24-well plates in a cell density of 6000 cells per well and settled for 24 h. […] Cells were stained with propidium iodide (Sigma Aldrich, final concentration 2 μg mL^−1) and Hoechst 33342 (ThermoFisher Scientific, final concentration 0.5 μM) for 60 min and with Calcein AM (Merck, BioReagent, final concentration 50 μM) for 15 min, washed two times with PBS and finally covered with PBS for further analysis. Fluorescence microscopic evaluation was performed on a Evos FL Cell Imaging System (ThermoFisher Scientific).

SW480 cells [7] = test: Viability staining via Calcein AM/Hoechst/PI, SW480; format: cell-based, human; details: 20 µM, 24 h (Fig. S135 legend), method block: 4 μM, 96 h
Method: as §3

HT29 cells [8] = test: Viability staining via Calcein AM/Hoechst/PI, HT29; format: cell-based, human; details: 20 µM, 24 h (Fig. S136 legend), method block: 4 μM, 96 h
Method: SW480, HT29 and HCT116 cells were seeded in 24-well plates in a cell density of 6000 cells per well and settled for 24 h. Afterwards cells were treated with 4 μM of test compounds 6a, c, f, h, m–o for 96 h. Cells were stained with propidium iodide (Sigma Aldrich, final concentration 2 μg mL^−1) and Hoechst 33342 (ThermoFisher Scientific, final concentration 0.5 μM) for 60 min and with Calcein AM (Merck, BioReagent, final concentration 50 μM) for 15 min, washed two times with PBS and finally covered with PBS for further analysis. Fluorescence microscopic evaluation was performed on a Evos FL Cell Imaging System (ThermoFisher Scientific).

SW620 = tested on: SW620; set-up: method as in PMID 24979269; details: SW620 colorectal cancer cells; read-out: IC50 cytotoxicity; cited from earlier work
SW620/Ad300 = tested on: SW620/Ad300; set-up: method as in PMID 24979269; details: SW620/Ad300 multi-drug resistant daughter cell line; read-out: IC50 cytotoxicity; cited from earlier work

SMILES | GI50 (HCT116 cells [1]) [µM] | GI50 (HT29 cells [2]) [µM] | GI50 (SW480 cells [3]) [µM] | chromatographic logP [4] | fraction unbound (human serum albumin) | G2/M phase (HCT116 cells [5]) [%] | G1 phase (HCT116 cells [5]) [%] | PI staining (necrosis) (HCT116 cells [6]) | PI staining (necrosis) (SW480 cells [7]) | PI staining (necrosis) (HT29 cells [8]) | melting point [°C] | IC50 (SW620) [µM] | IC50 (SW620/Ad300) [µM]
CCOC(=O)c1c(-c2ccccc2)c(-c2ccc(F)cc2)nn1CC(=O)c1ccc(F)cc1 [Compound 6m, Ethyl 3-(4-fluorophenyl)-1-[2-(4-fluorophenyl)-2-oxoethyl]-4-phenyl-1H-pyrazole-5-carboxylate] | 1.46 ± 0.247 | 2.69 ± 0.11 | 1.44 ± 0.173 | 4.545 ± 0.006 | 0.034 | 26.9 ± 0.8 | 61.0 ± 1.8 | no involvement of necrosis | no involvement of necrosis | no involvement of necrosis | 104 to 105 |  | 
CCOC(=O)c1c(-c2ccccc2)c(-c2ccccc2)nn1CC(=O)c1ccc(F)cc1 [Compound 6c, Ethyl 1-[2-(4-fluorophenyl)-2-oxoethyl]-3,4-diphenyl-1H-pyrazole-5-carboxylate] | 1.96 ± 0.266 | 4.98 ± 2.62 | 5.52 ± 3.72 | 4.453 ± 0.005 | 0.04 | 25.0 ± 0.5 | 63.2 ± 1.4 | no involvement of necrosis | no involvement of necrosis | no involvement of necrosis | 114 to 115 |  | 
COC(=O)c1c(-c2ccc(O)cc2)c(-c2ccc(O)cc2)cn1CC(=O)c1ccc(OC)cc1 [Lamellarin O] |  |  |  |  |  |  |  |  |  |  |  | 20 | 22.3
